Measurements taken from paper PMC6418785, “Presenting Precision Glycomacromolecules on Gold Nanoparticles for Increased Lectin Binding” (Polymers, 2017).

Legend:
[1] = target: T1, Concanavalin A (Con A) (Canavalia ensiformis, UniProt P02866); experiment: SPR inhibition competition assay, Con A binding to mannosylated sensor chip; conditions: for IC50: 100 nM Con A, LBB; for RIP per Carbohydrate Ligand: corrected for carbohydrate number per nanoparticle; for RIP per Glycomacromolecular Ligand: corrected for glycomacromolecule number per nanoparticle; for RIP: relative inhibitory potency based on IC50 of αMeMan on same chip (IP ≡ 1)
T1 construct: purchased LKT Laboratories (Biomol, Hamburg, Germany)
Procedure: As sensor chip a SA (streptavidin) chip from GE Healthcare Life Sciences was used. The positive (α-D-Mannose-PAA-biotin, flow cell 2) and negative (α-D-Galactose-PAA-biotin, flow cell 1) control for Con A binding were immobilized on the sensor chip surface using the standard biotin streptavidin capture method as adapted from previously established protocols. Therefore, a 4.2 µg/mL solution of both polymers was prepared in HBS-P+ buffer (pH 7.4, GE Healthcare, Uppsala, Sweden). The same buffer was used as running buffer in a flow rate of 10 µL/min. For immobilization, the immobilization wizard was used with a specified contact time of 420 s. Sodium chloride, sodium hydroxide and isopropanol solutions were prepared as specified by the manufacturer. […] After approximately 500 measurement cycles, a new SA (streptavidin) chip was used for further measurements. For immobilization, the same procedure was used as described above.
SPR inhibition competition studies were performed using the wizard template kinetics/affinity with contact times of 105 s and dissociation times of 180 s. Before the run, the system was primed with LBB (pH 7.40 ± 0.01, 10 mM Hepes, 50 mM NaCl, 1 mM CaCl2, 1 mM MnCl2) which was used as running buffer and two startup cycles were performed. The experiment was performed in multi cycle mode. For all experiments a 1 mg/mL stock solution of Con A was prepared in LBB and was shaken for 1 h. Then it was filtrated (Acrodisc® 32 mm syringe filter with a 0.1 µm Supor® membrane from Pall Corporation, Newquay, UK) and the concentration was determined spectrophotometrically. The stock solution was diluted to give a 200 nM solution of Con A. Glyco-AuNP solutions were concentrated by centrifugation (Allegra^TM 25R Centrifuge, Beckman Coulter, Brea, CA, USA, 12 h, 4500 rcf) and were resuspended in LBB to give a 20 nM stock solution. The concentration was verified by UV measurement. This glyco-AuNP stock solution was then used to prepare the dilution series in LBB. […] For N-ethylmaleimide capped glycomacromolecule 1a a dilution series with concentrations of 0, 1, 10, 20, 50, 100, 200, 500, 1000 µM and 3a a dilution series with concentrations of 0, 2, 20, 100, 200, 500, 1000, 1500, 2000 nM was prepared. For αMeMan a dilution series with concentrations of 0, 10, 100, 500, 1000, 1500, 2000, 5000 µM was prepared. As negative control, four representative concentrations of 0, 10, 1500 and 5000 µM were prepared for D-(+)-galactose.
For the experiment Con A and sample solutions were mixed in a 1:1 ratio to give half of the prepared concentrations. Each mixture was injected over both flow cells whereas the binding signal on flow cell 1 was subtracted from the response on flow cell 2. As regeneration procedure three consecutive injections of a 0.8 M solution of αMeMan in LBB with a contact time of 30 s was used. The relative response value at the beginning of the dissociation phase (20 s after the end of sample injection) for the 100 nM Con A solution with zero sample concentration was set to 100% binding. The relative response values of the Con A solutions incubated with the respective sample in serial dilutions were referred to Con A and calculated for relative binding in %. IC50 values were calculated as concentration of the sample that result in 50% inhibition of Con A binding to the mannosylated sensor chip surface. RIP (relative inhibitory potency) values are based on the IC50 value for αMeMan (IP (inhibitory potency) ≡ 1). All glyco-AuNPs, glycomacromolecules and αMeMan have been tested in three independent experiments (triplicate determination per experiment for αMeMan and glyco-AuNPs, dublicate determination per experiment for glycomacromolecules 1a and 3a).

[2] = target: T1, Concanavalin A (Con A); experiment: Kinetic study of aggregation behavior with Con A by DLS and UV-Vis spectroscopy; format: binding; conditions: αMeMan 60 mM added to wells or DLS cuvettes
Procedure: For the kinetic study of aggregation behavior with Con A performed by DLS and UV-Vis spectroscopy, a similar procedure as described by the group of Gibson was performed [41, 42].
For the kinetic studies using absorbance spectroscopy (Thermo Scientific, Vantaa, Finland), the stock solutions were mixed in wells of a 96-well microtiter-plate (100 µL of each solution per well). The absorbance at 400 and 700 nm was measured every minute for 30 min.
For the kinetic studies using DLS, the stock solutions were filtrated twice (Roth, Rotilabo® syringe filter, Karlsruhe, Germany, PTFE, 5.0 µm) and were pre-tempered to 20 °C. Then 750 µL of each stock solution were filled into the culture tubes and mixed. DLS measurements were performed at 20 °C and at a scattering angle of 90°. Every minute an intensity-time autocorrelation function was recorded with an acquisition time of 30 s during a period of 30 min.

[3] = SA sensor chip used for 1a and 3a (footnote 1)

| Compound | inhibition of Con A binding ([1]; negative control, four representative concentrations) | redispersion of Con A induced glyco-AuNP aggregates [2] | IC50 [1, 3] [µM] | IC50 ([1]; SA sensor chip with αMeMan IC50 (5.17 ± 0.84) × 10^5 nM) [µM] | RIP per Carbohydrate Ligand [1] | RIP per Glycomacromolecular Ligand [1] | RIP [1] |
| --- | --- | --- | --- | --- | --- | --- | --- |
| OC[C@H]1OC(O)[C@H](O)[C@@H](O)[C@H]1O (stereo partly drawn) [D-(+)-galactose] | no inhibition |  |  |  |  |  |  |
| CO[C@H]1O[C@H](CO)[C@@H](O)[C@H](O)[C@@H]1O [αMeMan, methyl-α-D-mannopyranoside] |  | redispersion of the aggregates | 325 | 517 | 1 | 1 | 1 |
| Man(2)-5-Gly(1)-EDS(3,4)-Cys(5)-N-ethylmaleimide [glycomacromolecule 1a] |  |  | 70 |  | 5 | 5 | 5 |
| Man(2,4,6,8,10)-11-Gly(1)-EDS(3,5,7,9)-Cys(11)-N-ethylmaleimide [glycomacromolecule 3a] |  |  |  |  | 419 | 2096 | 2096 |
